Reference: the supplement of paper PMC10307832

Experiments:
Test in all cases: relative viability (nuclei count vs DMSO), 5 days (fraction); higher = more cells survive
XMD8-85 + Pictilisib = compound: CN1CCN(CC1)C2=CC(=C(C=C2)NC3=NC=C4C(=N3)N(C5=CC=CC=C5C(=O)N4C)C)OC [XMD8-85] + CS(=O)(=O)N1CCN(Cc2cc3nc(-c4cccc5[nH]ncc45)nc(N4CCOCC4)c3s2)CC1 [Pictilisib] (partner 1 µM)
How it was run: (§1)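 Lung cancer cell lines in 1536-well plates got either a single drug or a fixed anchor-drug dose together with five library-drug doses (not always all listed) in √10 steps, by pin tool, on the day after seeding. Nuclei were counted after 5 days, and relative viability is the treated-to-vehicle ratio of nuclei counts. Values are medians of duplicate plates.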

XMD8-85 + Tozasertib = compound: CN1CCN(CC1)C2=CC(=C(C=C2)NC3=NC=C4C(=N3)N(C5=CC=CC=C5C(=O)N4C)C)OC [XMD8-85] + Cc1cc(Nc2cc(N3CCN(C)CC3)nc(Sc3ccc(NC(=O)C4CC4)cc3)n2)n[nH]1 [Tozasertib] (partner 0.1 µM)
How it was run: as §1

XMD8-85 + Linsitinib = compound: CN1CCN(CC1)C2=CC(=C(C=C2)NC3=NC=C4C(=N3)N(C5=CC=CC=C5C(=O)N4C)C)OC [XMD8-85] + C[C@]1(O)C[C@@H](c2nc(-c3ccc4ccc(-c5ccccc5)nc4c3)c3c(N)nccn32)C1 [Linsitinib] (partner 1 µM)
How it was run: as §1

XMD8-85 + OSI-027 = compound: CN1CCN(CC1)C2=CC(=C(C=C2)NC3=NC=C4C(=N3)N(C5=CC=CC=C5C(=O)N4C)C)OC [XMD8-85] + COc1cccc2cc(-c3nc([C@H]4CC[C@H](C(=O)O)CC4)n4ncnc(N)c34)[nH]c12 [OSI-027] (partner 0.5 µM)
How it was run: as §1

| Cell Line | relative viability (XMD8-85 + Pictilisib; first compound 0.08 µM) | relative viability (XMD8-85 + Pictilisib; first compound 0.253 µM) | relative viability (XMD8-85 + Pictilisib; first compound 0.8 µM) | relative viability (XMD8-85 + Pictilisib; first compound 2.53 µM) | relative viability (XMD8-85 + Pictilisib; first compound 8 µM) | relative viability (XMD8-85 + Tozasertib; first compound 0.08 µM) | relative viability (XMD8-85 + Tozasertib; first compound 0.253 µM) | relative viability (XMD8-85 + Tozasertib; first compound 0.8 µM) | relative viability (XMD8-85 + Tozasertib; first compound 2.53 µM) | relative viability (XMD8-85 + Tozasertib; first compound 8 µM) | relative viability (XMD8-85 + Linsitinib; first compound 0.08 µM) | relative viability (XMD8-85 + Linsitinib; first compound 0.253 µM) | relative viability (XMD8-85 + Linsitinib; first compound 0.8 µM) | relative viability (XMD8-85 + Linsitinib; first compound 2.53 µM) | relative viability (XMD8-85 + Linsitinib; first compound 8 µM) | relative viability (XMD8-85 + OSI-027; first compound 0.08 µM) | relative viability (XMD8-85 + OSI-027; first compound 0.253 µM) | relative viability (XMD8-85 + OSI-027; first compound 0.8 µM) | relative viability (XMD8-85 + OSI-027; first compound 2.53 µM) | relative viability (XMD8-85 + OSI-027; first compound 8 µM) |
| --- | --- | --- | --- | --- | --- | --- | --- | --- | --- | --- | --- | --- | --- | --- | --- | --- | --- | --- | --- | --- |
| HARA | 0.47 | 0.473 | 0.455 | 0.436 | 0.259 | 0.103 | 0.42 | 0.104 | 0.101 | 0.0877 | 1.06 | 0.933 | 0.945 | 0.668 | 0.243 | 0.467 | 0.574 | 0.523 | 0.478 | 0.229 |
| A-427 | 0.683 | 0.808 | 0.813 | 0.737 | 0.527 | 0.193 | 0.225 | 0.203 | 0.185 | 0.186 | 1.24 | 1.18 | 1.11 | 1.16 | 1.02 | 0.466 | 0.573 | 0.482 | 0.52 | 0.337 |
| NCI-H441 | 0.405 | 0.389 | 0.608 | 0.438 | 0.389 | 0.758 | 0.601 | 0.657 | 0.768 | 0.408 | 0.473 | 0.683 | 0.647 | 0.5 | 0.388 | 0.522 | 0.65 | 0.654 | 0.699 | 0.68 |
| PC-3 [JPC-3] | 0.717 | 0.666 | 0.766 | 0.879 | 0.672 | 0.723 | 0.848 | 0.974 | 1 | 0.625 | 0.958 | 0.994 | 1.02 | 1.09 |  | 0.769 | 0.754 | 0.698 | 0.814 | 0.71 |
| NCI-H1915 | 0.985 | 0.944 | 0.936 | 1.02 | 0.676 | 0.434 | 0.404 | 0.494 | 0.389 | 0.296 | 1.15 | 1.15 | 1.08 | 1.16 | 0.999 | 0.622 | 0.648 | 0.651 | 0.672 | 0.507 |
| HCC-44 | 0.616 | 0.548 | 0.767 | 0.783 | 0.452 | 0.802 | 0.898 | 1.15 | 0.51 | 0.356 | 0.714 | 0.749 | 0.642 | 0.499 | 0.346 | 0.51 | 0.55 | 0.46 | 0.456 | 0.3 |
| NCI-H2228 | 0.469 | 0.353 | 0.202 | 0.363 | 0.247 | 0.194 | 0.261 | 0.267 | 0.207 | 0.197 | 0.587 | 0.944 | 0.609 | 0.858 | 0.444 | 0.544 | 0.879 | 0.686 | 0.6 | 0.336 |
| LOU-NH91 | 0.52 | 0.566 | 0.526 | 0.516 | 0.471 | 0.644 | 0.631 | 0.636 | 0.669 | 0.419 | 0.946 | 0.979 | 0.909 | 0.914 | 0.751 | 0.705 | 0.735 | 0.672 | 0.827 |  |
| NCI-H1666 | 0.522 | 0.375 | 0.391 | 0.312 | 0.44 | 0.579 | 0.641 | 0.637 | 0.601 | 0.464 | 1.04 | 0.79 | 0.859 | 0.769 | 0.696 | 0.816 | 0.876 | 0.893 | 0.907 | 0.679 |
| NCI-H1395 | 0.699 | 0.649 | 0.634 | 0.613 | 0.484 | 0.768 | 0.786 | 0.716 | 0.693 | 0.571 | 0.792 | 1.09 | 1.35 | 1.01 | 1.08 | 0.754 | 0.64 | 0.667 | 0.664 | 0.489 |
| SK-MES-1 | 0.349 | 0.371 | 0.342 | 0.383 | 0.375 | 0.998 | 0.939 |  | 0.81 | 0.276 | 1.09 | 0.942 | 0.95 | 1 | 0.964 | 0.533 | 0.657 | 0.608 | 0.525 | 0.457 |
| EKVX | 0.454 | 0.467 | 0.416 | 0.451 | 0.441 | 0.404 | 0.34 | 0.41 | 0.427 | 0.276 | 0.808 | 1.06 | 1.03 | 1.18 | 0.851 | 0.746 | 0.872 | 0.661 | 0.73 |  |
| HOP-62 | 0.734 | 0.723 | 0.858 | 0.559 | 0.232 | 0.371 | 0.342 | 0.403 | 0.301 | 0.177 | 1.15 | 0.966 | 0.87 | 0.814 |  | 0.806 | 0.867 | 0.842 | 0.845 | 0.436 |
| NCI-H1734 | 0.45 | 0.397 | 0.477 | 0.502 | 0.475 | 0.252 | 0.248 | 0.291 | 0.257 | 0.237 | 1.01 | 0.766 | 0.863 | 0.816 | 0.607 | 0.579 | 0.664 | 0.609 | 0.699 | 0.425 |
| LCLC-103H | 0.606 | 0.615 | 0.66 | 0.598 | 0.462 | 0.451 | 0.449 | 0.581 | 0.45 | 0.383 | 1.05 | 1.03 | 1.12 | 1.19 | 0.857 | 0.428 | 0.441 | 0.487 |  | 0.404 |
| EMC-BAC-2 | 0.493 | 0.569 | 0.527 | 0.589 | 0.451 | 0.293 | 0.275 | 0.285 | 0.239 | 0.224 | 0.851 | 0.803 | 0.793 | 0.797 | 0.813 | 0.358 | 0.385 | 0.368 | 0.404 | 0.313 |
